In the Kinase Knowledgebase extract (Sharma et al. 2016):

Target: ROCK2 (human) (UniProt O75116)
Experiment: Inhibition of ROCK2 Kinase Activity
Settings: concentration not given here

ROCK2 (human), sequence (O75116 whole entry, looked up): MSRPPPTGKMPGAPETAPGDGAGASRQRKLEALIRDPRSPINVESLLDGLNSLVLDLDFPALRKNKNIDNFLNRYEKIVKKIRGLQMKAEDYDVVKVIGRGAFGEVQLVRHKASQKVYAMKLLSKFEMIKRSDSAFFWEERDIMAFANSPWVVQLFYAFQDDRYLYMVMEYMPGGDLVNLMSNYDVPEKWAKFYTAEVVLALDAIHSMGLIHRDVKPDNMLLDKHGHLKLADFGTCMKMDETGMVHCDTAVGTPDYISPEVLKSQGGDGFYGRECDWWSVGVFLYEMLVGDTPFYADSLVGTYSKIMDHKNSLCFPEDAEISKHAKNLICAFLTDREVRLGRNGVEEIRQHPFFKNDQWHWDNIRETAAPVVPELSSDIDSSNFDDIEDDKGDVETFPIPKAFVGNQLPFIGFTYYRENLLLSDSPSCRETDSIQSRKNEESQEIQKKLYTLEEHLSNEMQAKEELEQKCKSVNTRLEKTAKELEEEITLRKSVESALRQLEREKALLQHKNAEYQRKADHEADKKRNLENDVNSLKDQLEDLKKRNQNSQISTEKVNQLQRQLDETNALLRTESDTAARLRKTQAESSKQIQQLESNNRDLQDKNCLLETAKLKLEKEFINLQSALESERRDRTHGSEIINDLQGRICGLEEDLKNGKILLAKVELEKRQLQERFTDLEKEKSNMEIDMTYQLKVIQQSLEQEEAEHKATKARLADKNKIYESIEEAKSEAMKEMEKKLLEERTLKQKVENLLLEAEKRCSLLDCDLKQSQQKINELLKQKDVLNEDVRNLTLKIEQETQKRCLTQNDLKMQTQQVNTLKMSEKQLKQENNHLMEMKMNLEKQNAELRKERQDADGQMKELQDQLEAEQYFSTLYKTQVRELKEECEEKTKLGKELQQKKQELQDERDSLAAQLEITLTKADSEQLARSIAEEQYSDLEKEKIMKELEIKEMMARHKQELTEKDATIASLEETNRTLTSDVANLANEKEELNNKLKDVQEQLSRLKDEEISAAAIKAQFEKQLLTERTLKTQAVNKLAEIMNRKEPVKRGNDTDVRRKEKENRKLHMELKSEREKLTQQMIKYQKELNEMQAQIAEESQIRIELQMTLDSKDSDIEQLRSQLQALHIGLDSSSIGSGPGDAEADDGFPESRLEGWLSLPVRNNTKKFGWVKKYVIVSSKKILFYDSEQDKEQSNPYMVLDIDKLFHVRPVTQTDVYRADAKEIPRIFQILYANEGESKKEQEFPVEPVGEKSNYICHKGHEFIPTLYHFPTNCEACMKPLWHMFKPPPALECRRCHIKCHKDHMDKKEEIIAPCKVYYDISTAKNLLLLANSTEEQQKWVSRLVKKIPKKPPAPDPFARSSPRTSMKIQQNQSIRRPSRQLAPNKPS

Row | SMILES | inhibition
1 | Cn1cnc2c(/C=C/c3ccccc3)ncnc21 | 0%
2 | Cn1c(-c2ccc([S+](C)[O-])cc2)nc2c(Sc3ccc(F)cc3)ncnc21 (centres undefined) | 0%
3 | c1ccc(-n2cnc3ncncc32)cc1 | 0%
4 | Cn1c(Br)nc2c(Sc3ccccc3)ncnc21 | 0%
5 | Fc1ccc(Cn2cnc3c(Sc4ccc(F)cc4)ncnc32)cc1 | 0%
6 | Fc1ccc(Cn2cnc3c(Cl)ncnc32)cc1 | 0%
7 | Nc1ncnc2c1ncn2Cc1ccc(F)cc1 | 0%
8 | Cn1c(C#CCCO)nc2c(Sc3ccccc3)ncnc21 | 0%

Second part, the compound after the results:

Row | inhibition | SMILES
9 | 0% | Cn1c(-c2ccc(S(C)(=O)=O)cc2)nc2c(Sc3ccc(F)cc3)ncnc21
10 | 0% | CSc1ccc(-c2nc3c(Sc4ccc(F)cc4)ncnc3n2C)cc1
11 | 22% | C(=C\c1ncnc2[nH]cnc12)/c1ccccc1
12 | 0% | CSc1ccc(-c2nc3c(Sc4ccccc4)ncnc3n2C)cc1
13 | 0% | Cn1cnc2c(Nc3ccccc3)ncnc21
14 | 0% | Cn1c(-c2ccccc2)nc2c(-c3ccc(F)cc3)ncnc21
